Among the data in ChEMBL document CHEMBL3585277, “Novel type of plasmin inhibitors: providing insight into P4 moiety and alternative scaffold to pyrrolopyrimidine” (Bioorg Med Chem, 2015) are IC50 and fold change (FC) values, retold here.

In general, IC50 refers to the concentration that gives 50% inhibition. A low value points to greater potency.

For experiment [1], the target named is Urokinase-type plasminogen activator (Homo sapiens, UniProt P00749). In words: Inhibition of urokinase (unknown origin) using Pyr-Gly-Arg-MCA as substrate by fluorescence analysis.
Experiment [2] addresses T1, Plasminogen (Homo sapiens, UniProt P00747). In words: Inhibition of plasmin (unknown origin) using Boc-Val-Leu-Lys-MCA as substrate by fluorescence analysis.
Experiment [3] concerns the target T1, Plasminogen. The experiment can be described thus: Inhibition of plasmin (unknown origin) assessed as relative potency using Boc-Val-Leu-Lys-MCA as substrate by fluorescence analysis.

T1 sequence (P00747 97-580 limits assumed): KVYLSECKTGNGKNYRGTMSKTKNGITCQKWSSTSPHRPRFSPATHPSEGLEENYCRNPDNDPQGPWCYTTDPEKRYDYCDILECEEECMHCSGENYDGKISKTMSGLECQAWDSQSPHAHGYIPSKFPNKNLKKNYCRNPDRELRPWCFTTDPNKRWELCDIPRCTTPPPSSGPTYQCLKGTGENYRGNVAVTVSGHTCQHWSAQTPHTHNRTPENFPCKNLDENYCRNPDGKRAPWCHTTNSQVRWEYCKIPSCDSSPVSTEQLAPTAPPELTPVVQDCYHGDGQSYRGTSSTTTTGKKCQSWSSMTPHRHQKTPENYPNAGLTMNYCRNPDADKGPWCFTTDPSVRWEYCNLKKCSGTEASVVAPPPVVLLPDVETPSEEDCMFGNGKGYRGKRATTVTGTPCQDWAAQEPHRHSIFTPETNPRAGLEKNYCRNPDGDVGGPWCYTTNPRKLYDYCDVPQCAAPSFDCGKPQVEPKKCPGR
T1 sequence (P00747 581-810 limits assumed): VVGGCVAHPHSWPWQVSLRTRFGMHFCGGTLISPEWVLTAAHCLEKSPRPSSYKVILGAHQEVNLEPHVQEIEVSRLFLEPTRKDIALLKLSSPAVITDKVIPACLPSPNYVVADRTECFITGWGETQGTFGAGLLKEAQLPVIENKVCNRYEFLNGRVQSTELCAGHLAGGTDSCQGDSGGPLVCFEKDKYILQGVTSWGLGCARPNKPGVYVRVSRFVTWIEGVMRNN

As for `Cn1c(CN2C(=O)CN(c3ccc(Oc4ccccc4)cc3)C2=O)cc2cnc(C(=O)N[C@H](C#N)CCCCN)nc21`, the IC50 in experiment [1] is > 200 µM; at Plasminogen [2] it was 14 µM. In addition, the fold change (FC) at Plasminogen [3] was found to be 1.
Regarding `CC(C)Cn1c(=O)oc2ccc(N3CC(=O)N(Cc4cc5cnc(C(=O)N[C@H](C#N)CCCCN)nc5n4C)C3=O)cc21`, the IC50 at Plasminogen [2] was found to be 29 µM. That is a double-digit micromolar value.
For `CCCn1c(=O)oc2ccc(N3CC(=O)N(Cc4cc5cnc(C(=O)N[C@H](C#N)CCCCN)nc5n4C)C3=O)cc21`, inhibition against Plasminogen [2] was half-maximal at 26 µM (IC50). The IC50 values of the last two compounds are within 1.5-fold of each other.
For `Cn1c(CN2C(=O)CN(c3ccc(F)cc3)C2=O)cc2cnc(C(=O)N[C@H](C#N)CCCCN)nc21`, the concentration for half-maximal inhibition (IC50) is > 200 µM in experiment [1] and 43 µM at Plasminogen [2]. Also, at Plasminogen [3], the fold change (FC) was determined as 3.
For the compound `Cn1c(CN2C(=O)CN(c3ccc(F)cc3)C2=O)nc2ccc(C(=O)N[C@H](C#N)CCCCN)cc21`, the values for the IC50 (in experiment [1]; at Plasminogen [2]) were > 200 µM and 100 µM, respectively.
The compound `Cn1c(CN2C(=O)CN(c3ccc4oc(=O)n(C)c4c3)C2=O)cc2cnc(C(=O)N[C@H](C#N)CCCCN)nc21` came in with a concentration for half-maximal inhibition (IC50) on Plasminogen [2] of 43 µM. For the same compound, the fold change (FC) at Plasminogen [3] amounted to 3.1.
With `Cn1c(CN2C(=O)CN(c3ccc(Oc4ccncc4)cc3)C2=O)cc2cnc(C(=O)N[C@H](C#N)CCCCN)nc21`, the IC50 in experiment [1] is > 200 µM; against Plasminogen [2], 74 µM.
`CCCn1c(=O)oc2cc(N3CC(=O)N(Cc4cc5cnc(C(=O)N[C@H](C#N)CCCCN)nc5n4C)C3=O)ccc21`: on Plasminogen [2], it took 160 µM to reach half-maximal inhibition (IC50).
Take `N#C[C@H](CCCCN)NC(=O)c1nc2cc(CN3C(=O)CN(c4ccc(F)cc4)C3=O)ccc2o1`: the IC50 at Plasminogen [2] is > 200 µM. Moreover, the fold change (FC) on Plasminogen [3] was > 14.3.
For `Cn1c(CN2C(=O)CN(c3ccc(Oc4ccccc4)cc3)C2=O)nc2cc(C(=O)N[C@H](C#N)CCCCN)ccc21`, at Plasminogen [2], the IC50 is > 200 µM.
On Plasminogen [2], `Cn1c(CN2C(=O)CN(c3ccc(Oc4ccccc4)cc3)C2=O)nc2ccc(C(=O)N[C@H](C#N)CCCCN)cc21` registered an IC50 of 25 µM.
Take `Cn1c(CN2C(=O)CN(c3ccc4c(c3)oc(=O)n4Cc3ccncc3)C2=O)cc2cnc(C(=O)N[C@H](C#N)CCCCN)nc21`: the IC50 at Plasminogen [2] is > 200 µM.
On to `Cn1c(CN2C(=O)CN(c3ccc4c(c3)oc(=O)n4C)C2=O)cc2cnc(C(=O)N[C@H](C#N)CCCCN)nc21`, for which it took 130 µM to reach half-maximal inhibition on Plasminogen [2] (IC50). For the same compound, the fold change (FC) on Plasminogen [3] was 3.9.
On to `Cn1c(CN2C(=O)CN(c3ccc(Oc4ccncc4)cc3)C2=O)nc2ccc(C(=O)N[C@H](C#N)CCCCN)cc21`, for which the half-maximal inhibitory concentration (IC50) is > 200 µM in experiment [1] and 56 µM against Plasminogen [2].
In the case of `CC(C)Cn1c(=O)oc2cc(N3CC(=O)N(Cc4cc5cnc(C(=O)N[C@H](C#N)CCCCN)nc5n4C)C3=O)ccc21`, the IC50 against Plasminogen [2] was > 200 µM.
Take `Cn1c(CN2C(=O)CN(c3ccc4oc(=O)n(Cc5ccncc5)c4c3)C2=O)cc2cnc(C(=O)N[C@H](C#N)CCCCN)nc21`: at Plasminogen [2], inhibition was half-maximal at 23 µM (IC50).
